Literature values, collected in US20240173256A1, “HDL MIMICKING TARGETED DRUG DELIVERY SYSTEM FOR THE TREATMENT OF SOLID TUMORS” (University of North Texas Health Science Center, priority 2022, published 2024).
Where two headings read alike, the source gives them in different places.

Assays:
[1] = patients
[2] = rodents

| SMILES | Incidence of congestive heart failure ([1]; 400 mg/m^2) | Incidence of congestive heart failure ([1]; 550 mg/m^2) | Incidence of congestive heart failure ([1]; 700 mg/m^2) | Cardiotoxicity [2] |
| --- | --- | --- | --- | --- |
| COc1cccc2c1C(=O)c1c(O)c3c(c(O)c1C2=O)C[C@@](O)(C(=O)CO)C[C@@H]3O[C@H]1C[C@H](N)[C@H](O)[C@H](C)O1 [doxorubicin] | 4.7% | 26% | 48% | ventricular damage proportionate to dosage |
| CCCCC(=O)OCC(=O)[C@]1(O)Cc2c(O)c3c(c(O)c2[C@@H](O[C@H]2C[C@H](NCc4ccccc4)[C@H](O)[C@H](C)O2)C1)C(=O)c1c(OC)cccc1C3=O [AD 198, N-Benzyladriamycin-14-valerate] | – | – | – | no significant cardiotoxicity |
